Active and inactive are the calls of the source. How the calls were made is not given here.
Tests used:
Test in all cases: cellular hydrolase off-targets, SILAC, ABHD6 analysis – ABPP-SILAC, LC-MS, mouse cells, selectivity assay for DAGLb inhibitor project, late-stage follow-up (AID 602341)
[1] = tested on: Faah; settings: serine hydrolases, stronger effect = lower value
[2] = tested on: D230012E17Rik; settings: serine hydrolases, stronger effect = lower value
[3] = tested on: Abhd11; settings: serine hydrolases, stronger effect = lower value
[4] = molecular target: Monoacylglycerol lipase ABHD6 (Mus musculus) (UniProt Q8R2Y0); settings: serine hydrolases, stronger effect = lower value
[5] = tested on: Pla2g6; settings: serine hydrolases, stronger effect = lower value
[6] = tested on: Ache; settings: serine hydrolases, stronger effect = lower value
[7] = molecular target: Platelet-activating factor acetylhydrolase 2, cytoplasmic (Mus musculus) (UniProt Q8VDG7); settings: serine hydrolases, Pafah2, stronger effect = lower value
[8] = tested on: Ppt2; settings: serine hydrolases, stronger effect = lower value
[9] = tested on: Tpp2; settings: serine hydrolases, stronger effect = lower value
[10] = tested on: Acot2; settings: serine hydrolases, stronger effect = lower value
[11] = tested on: Esd; settings: serine hydrolases, stronger effect = lower value
[12] = tested on: Fam108a; settings: serine hydrolases, stronger effect = lower value
[13] = molecular target: Palmitoyl-protein thioesterase ABHD10, mitochondrial (Mus musculus) (UniProt Q6PE15); settings: serine hydrolases, stronger effect = lower value
[14] = tested on: Abhd12; settings: serine hydrolases, stronger effect = lower value
[15] = tested on: Ctsa; settings: serine hydrolases, stronger effect = lower value
[16] = tested on: Fam108b; settings: serine hydrolases, stronger effect = lower value
[17] = tested on: Dpp9; settings: serine hydrolases, stronger effect = lower value
[18] = tested on: Qrsl1; settings: serine hydrolases, stronger effect = lower value
[19] = tested on: Serhl; settings: serine hydrolases, stronger effect = lower value
[20] = tested on: Pafah1b2; settings: serine hydrolases, stronger effect = lower value
[21] = molecular target: Acyl-protein thioesterase 1 (Mus musculus) (UniProt P97823); settings: serine hydrolases, Lypla1, stronger effect = lower value
[22] = tested on: Rbbp9; settings: serine hydrolases, stronger effect = lower value
[23] = tested on: Pnpla7; settings: serine hydrolases, stronger effect = lower value
[24] = tested on: Prcp; settings: serine hydrolases, stronger effect = lower value
[25] = molecular target: Diacylglycerol lipase-beta (Mus musculus) (UniProt Q91WC9); settings: serine hydrolases, Daglb, stronger effect = lower value
[26] = tested on: Lypla2; settings: serine hydrolases, stronger effect = lower value
[27] = tested on: Fasn; settings: serine hydrolases, stronger effect = lower value
[28] = tested on: Lactb; settings: serine hydrolases, stronger effect = lower value
[29] = tested on: Pnpla6; settings: serine hydrolases, stronger effect = lower value
[30] = tested on: Lyplal1; settings: serine hydrolases, stronger effect = lower value
[31] = tested on: Lonp1; settings: serine hydrolases, stronger effect = lower value
[32] = tested on: Dpp7; settings: serine hydrolases, stronger effect = lower value
[33] = tested on: Pnpla8; settings: serine hydrolases, stronger effect = lower value
[34] = tested on: Bat5; settings: serine hydrolases, stronger effect = lower value
[35] = tested on: Pafah1b3; settings: serine hydrolases, stronger effect = lower value
[36] = tested on: Dpp8; settings: serine hydrolases, stronger effect = lower value
[37] = tested on: Fam108c; settings: serine hydrolases, stronger effect = lower value
[38] = tested on: Pme1; settings: serine hydrolases, stronger effect = lower value
[39] = tested on: Lipe; settings: serine hydrolases, stronger effect = lower value
[40] = tested on: Htra2; settings: serine hydrolases, stronger effect = lower value
[41] = tested on: Iah1; settings: serine hydrolases, stronger effect = lower value
[42] = tested on: Lypla3; settings: serine hydrolases, stronger effect = lower value
[43] = tested on: Apeh; settings: serine hydrolases, stronger effect = lower value
[44] = molecular target: Prolyl endopeptidase (Mus musculus) (UniProt Q9QUR6); settings: serine hydrolases, Prep, stronger effect = lower value
[45] = tested on: Prepl; settings: serine hydrolases, stronger effect = lower value
[46] = tested on: Kiaa1363; settings: serine hydrolases, stronger effect = lower value
[47] = tested on: Parl; settings: serine hydrolases, stronger effect = lower value

Chain of Platelet-activating factor acetylhydrolase 2, cytoplasmic (Mus musculus) (Q8VDG7 whole entry, looked up): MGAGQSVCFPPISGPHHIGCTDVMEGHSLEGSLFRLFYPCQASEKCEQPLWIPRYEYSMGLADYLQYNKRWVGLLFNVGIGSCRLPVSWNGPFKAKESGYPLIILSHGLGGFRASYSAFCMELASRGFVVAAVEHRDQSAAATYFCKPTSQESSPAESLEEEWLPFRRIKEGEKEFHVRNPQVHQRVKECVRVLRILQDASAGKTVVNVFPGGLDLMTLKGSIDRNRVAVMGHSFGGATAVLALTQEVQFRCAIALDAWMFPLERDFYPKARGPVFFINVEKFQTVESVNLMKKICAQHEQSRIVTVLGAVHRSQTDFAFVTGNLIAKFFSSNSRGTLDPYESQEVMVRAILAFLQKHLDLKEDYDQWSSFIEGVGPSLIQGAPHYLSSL
Chain of Monoacylglycerol lipase ABHD6 (Mus musculus) (Q8R2Y0 whole entry, looked up): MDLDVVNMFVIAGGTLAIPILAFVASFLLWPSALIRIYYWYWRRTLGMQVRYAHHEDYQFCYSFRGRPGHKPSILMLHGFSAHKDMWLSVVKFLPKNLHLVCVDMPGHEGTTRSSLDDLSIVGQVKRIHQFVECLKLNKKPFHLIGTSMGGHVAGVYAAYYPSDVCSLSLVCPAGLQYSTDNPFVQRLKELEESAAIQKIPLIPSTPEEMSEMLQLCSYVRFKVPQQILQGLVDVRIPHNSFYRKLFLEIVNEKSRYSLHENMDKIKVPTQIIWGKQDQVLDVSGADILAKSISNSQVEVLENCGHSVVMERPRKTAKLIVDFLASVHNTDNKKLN
Chain of Palmitoyl-protein thioesterase ABHD10, mitochondrial (Mus musculus) (Q6PE15 whole entry, looked up): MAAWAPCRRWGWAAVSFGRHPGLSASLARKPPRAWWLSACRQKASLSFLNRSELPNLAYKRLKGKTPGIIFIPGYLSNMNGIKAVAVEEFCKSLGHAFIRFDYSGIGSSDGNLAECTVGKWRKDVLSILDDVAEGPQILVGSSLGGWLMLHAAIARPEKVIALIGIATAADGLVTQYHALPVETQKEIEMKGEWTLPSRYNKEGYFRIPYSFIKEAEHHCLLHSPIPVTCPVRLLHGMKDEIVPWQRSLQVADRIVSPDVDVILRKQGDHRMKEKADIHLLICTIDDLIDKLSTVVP
Chain of Diacylglycerol lipase-beta (Mus musculus) (Q91WC9 whole entry, looked up): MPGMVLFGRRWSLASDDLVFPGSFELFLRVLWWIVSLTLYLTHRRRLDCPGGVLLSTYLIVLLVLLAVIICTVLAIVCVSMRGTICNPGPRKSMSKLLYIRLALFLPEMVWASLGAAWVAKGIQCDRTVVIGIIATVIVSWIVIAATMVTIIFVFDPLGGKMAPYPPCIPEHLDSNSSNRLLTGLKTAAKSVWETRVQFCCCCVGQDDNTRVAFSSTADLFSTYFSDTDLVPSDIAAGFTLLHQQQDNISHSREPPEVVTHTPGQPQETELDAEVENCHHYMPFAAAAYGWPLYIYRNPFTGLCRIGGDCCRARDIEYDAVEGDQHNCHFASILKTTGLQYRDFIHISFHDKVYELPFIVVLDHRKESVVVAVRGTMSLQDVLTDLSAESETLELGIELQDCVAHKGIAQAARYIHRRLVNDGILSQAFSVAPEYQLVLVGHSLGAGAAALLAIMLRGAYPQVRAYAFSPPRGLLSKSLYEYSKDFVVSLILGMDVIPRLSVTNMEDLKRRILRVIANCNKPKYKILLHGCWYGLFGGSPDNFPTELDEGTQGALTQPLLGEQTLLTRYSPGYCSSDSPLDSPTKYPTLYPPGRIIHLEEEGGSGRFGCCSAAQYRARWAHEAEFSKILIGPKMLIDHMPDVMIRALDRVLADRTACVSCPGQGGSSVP
Chain of Acyl-protein thioesterase 1 (Mus musculus) (P97823 whole entry, looked up): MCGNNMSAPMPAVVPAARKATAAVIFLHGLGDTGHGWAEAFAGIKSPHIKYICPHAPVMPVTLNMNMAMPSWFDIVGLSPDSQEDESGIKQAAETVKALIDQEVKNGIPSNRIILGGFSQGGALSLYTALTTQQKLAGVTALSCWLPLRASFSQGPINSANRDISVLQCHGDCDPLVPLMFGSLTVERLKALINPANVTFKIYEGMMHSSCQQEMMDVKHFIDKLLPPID
Chain of Prolyl endopeptidase (Mus musculus) (Q9QUR6 whole entry, looked up): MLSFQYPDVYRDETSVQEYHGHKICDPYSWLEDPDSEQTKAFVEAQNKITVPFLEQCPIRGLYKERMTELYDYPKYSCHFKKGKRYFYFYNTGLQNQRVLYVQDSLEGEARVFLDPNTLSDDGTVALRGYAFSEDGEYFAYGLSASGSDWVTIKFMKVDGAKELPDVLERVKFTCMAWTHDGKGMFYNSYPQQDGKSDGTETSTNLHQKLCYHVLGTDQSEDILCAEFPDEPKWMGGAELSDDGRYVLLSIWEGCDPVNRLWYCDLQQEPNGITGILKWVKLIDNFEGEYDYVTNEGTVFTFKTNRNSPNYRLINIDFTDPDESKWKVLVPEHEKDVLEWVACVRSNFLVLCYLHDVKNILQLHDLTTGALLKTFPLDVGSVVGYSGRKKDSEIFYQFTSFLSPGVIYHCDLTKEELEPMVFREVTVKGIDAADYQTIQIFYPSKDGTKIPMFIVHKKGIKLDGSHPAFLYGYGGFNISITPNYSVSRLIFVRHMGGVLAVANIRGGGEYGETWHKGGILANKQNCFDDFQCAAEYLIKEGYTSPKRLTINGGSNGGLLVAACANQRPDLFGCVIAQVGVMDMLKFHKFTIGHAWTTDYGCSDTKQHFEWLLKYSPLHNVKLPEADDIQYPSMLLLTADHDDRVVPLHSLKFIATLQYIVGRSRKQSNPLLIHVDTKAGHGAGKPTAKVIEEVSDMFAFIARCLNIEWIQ

**Q.** What does the source list for `COc1ccc(-c2ccc(-c3cn(C(=O)N4CCCCC4c4ccccc4)nn3)cc2)cc1` (configuration not stated)?
**A.** SILAC ratio (inhibitor/DMSO) [1]: 0.95 (inactive); SILAC ratio (inhibitor/DMSO) [2]: 1.13 (inactive); SILAC ratio (inhibitor/DMSO) [3]: 1.5 (inactive); SILAC ratio (inhibitor/DMSO) [4]: 0.05; SILAC ratio (inhibitor/DMSO) [5]: 1.47 (inactive); SILAC ratio (inhibitor/DMSO) [6]: 1.23 (inactive); SILAC ratio (inhibitor/DMSO) [7]: 1.1 (inactive); SILAC ratio (inhibitor/DMSO) [8]: 1.17 (inactive); SILAC ratio (inhibitor/DMSO) [9]: 1.43 (inactive); SILAC ratio (inhibitor/DMSO) [10]: 1.47 (inactive); SILAC ratio (inhibitor/DMSO) [11]: 1.34 (inactive); SILAC ratio (inhibitor/DMSO) [12]: 1.33 (inactive); SILAC ratio (inhibitor/DMSO) [13]: 1.17 (inactive); SILAC ratio (inhibitor/DMSO) [14]: 1.3 (inactive); SILAC ratio (inhibitor/DMSO) [15]: 1.46 (inactive); SILAC ratio (inhibitor/DMSO) [16]: 1.15 (inactive); SILAC ratio (inhibitor/DMSO) [17]: 1.06 (inactive); SILAC ratio (inhibitor/DMSO) [18]: 1.47 (inactive); SILAC ratio (inhibitor/DMSO) [19]: 1.2 (inactive); SILAC ratio (inhibitor/DMSO) [20]: 1.19 (inactive); SILAC ratio (inhibitor/DMSO) [21]: 1.05 (inactive); SILAC ratio (inhibitor/DMSO) [22]: 1.4 (inactive); SILAC ratio (inhibitor/DMSO) [23]: 1.65 (inactive); SILAC ratio (inhibitor/DMSO) [24]: 0.86 (inactive); SILAC ratio (inhibitor/DMSO) [25]: 1.05 (inactive); SILAC ratio (inhibitor/DMSO) [26]: 1.13 (inactive); SILAC ratio (inhibitor/DMSO) [27]: 1.19 (inactive); SILAC ratio (inhibitor/DMSO) [28]: 1.05 (inactive); SILAC ratio (inhibitor/DMSO) [29]: 1.4 (inactive); SILAC ratio (inhibitor/DMSO) [30]: 1.61 (inactive); SILAC ratio (inhibitor/DMSO) [31]: 1.73 (inactive); SILAC ratio (inhibitor/DMSO) [32]: 1.29 (inactive); SILAC ratio (inhibitor/DMSO) [33]: 1.33 (inactive); SILAC ratio (inhibitor/DMSO) [34]: 1.27 (inactive); SILAC ratio (inhibitor/DMSO) [35]: 1.15 (inactive); SILAC ratio (inhibitor/DMSO) [36]: 1.17 (inactive); SILAC ratio (inhibitor/DMSO) [37]: 1.13 (inactive); SILAC ratio (inhibitor/DMSO) [38]: 1.29 (inactive); SILAC ratio (inhibitor/DMSO) [39]: 1.21 (inactive); SILAC ratio (inhibitor/DMSO) [40]: 1.29 (inactive); SILAC ratio (inhibitor/DMSO) [41]: 1.15 (inactive); SILAC ratio (inhibitor/DMSO) [42]: 1.1 (inactive); SILAC ratio (inhibitor/DMSO) [43]: 1.13 (inactive); SILAC ratio (inhibitor/DMSO) [44]: 1.07 (inactive); SILAC ratio (inhibitor/DMSO) [45]: 1 (inactive); SILAC ratio (inhibitor/DMSO) [46]: 1.39 (inactive); SILAC ratio (inhibitor/DMSO) [47]: 1.4 (inactive)

— PubChem BioAssay AID602341 (The Scripps Research Institute Molecular Screening Center, 2012)
